ChEMBL document CHEMBL1154822, “Synthesis and antiproliferative activity of 7-azaindirubin-3'-oxime, a 7-aza isostere of the natural indirubin pharmacophore” (J Nat Prod, 2009)

Legend:
Assay type in all cases: functional
[1] = test system: SK-MEL-5; assay: Cytotoxicity against human SK-MEL-5 cells assessed as cell growth at 100 uM after 1 to 11 days by MTT assay; conditions: read-out: Activity
[2] = test system: ACHN; assay: Cytotoxicity against human ACHN cells assessed as cell growth at 0.1 uM after 1 to 11 days by MTT assay; conditions: read-out: Activity
[3] = test system: COLO 205; assay: Cytotoxicity against human COLO205 cells assessed as cell growth at 1 uM after 1 to 11 days by MTT assay; conditions: read-out: Activity
[4] = test system: DU-145; assay: Cytotoxicity against human DU145 cells assessed as cell growth at 0.1 uM after 1 to 11 days by MTT assay; conditions: read-out: Activity
[5] = test system: ACHN; assay: Cytotoxicity against human ACHN cells assessed as cell growth at 1 uM after 1 to 11 days by MTT assay; conditions: read-out: Activity
[6] = test system: NCI-H322M; assay: Cytotoxicity against human NCI-H322M cells after 1 to 11 days by MTT assay
[7] = test system: NCI-H322M; assay: Cytotoxicity against human NCI-H322M cells assessed as cell growth at 100 uM after 1 to 11 days by MTT assay; conditions: read-out: Activity
[8] = test system: NCI-H460; assay: Cytotoxicity against human NCI-H460 cells assessed as cell growth at 10 uM after 1 to 11 days by MTT assay; conditions: read-out: Activity
[9] = test system: SF-268; assay: Cytotoxicity against human SF268 cells assessed as cell growth at 10 uM after 1 to 11 days by MTT assay; conditions: read-out: Activity
[10] = test system: A498; assay: Cytotoxicity against human A498 cells assessed as cell growth at 100 uM after 1 to 11 days by MTT assay; conditions: read-out: Activity
[11] = test system: OVCAR-8; assay: Cytotoxicity against human OVCAR8 cells assessed as cell growth at 1 uM after 1 to 11 days by MTT assay; conditions: read-out: Activity
[12] = test system: A498; assay: Cytotoxicity against human A498 cells assessed as cell growth at 1 uM after 1 to 11 days by MTT assay; conditions: read-out: Activity
[13] = test system: HCT-15; assay: Cytotoxicity against human HCT15 cells assessed as cell growth at 100 uM after 1 to 11 days by MTT assay; conditions: read-out: Activity
[14] = test system: SK-MEL-28; assay: Cytotoxicity against human SK-MEL-28 cells assessed as cell growth at 10 uM after 1 to 11 days by MTT assay; conditions: read-out: Activity
[15] = test system: MCF7; assay: Cytotoxicity against human MCF7 cells assessed as cell growth at 0.1 uM after 1 to 11 days by MTT assay; conditions: read-out: Activity
[16] = test system: OVCAR-5; assay: Cytotoxicity against human OVCAR5 cells assessed as cell growth at 1 uM after 1 to 11 days by MTT assay; conditions: read-out: Activity
[17] = test system: SNB-19; assay: Cytotoxicity against human SNB19 cells assessed as cell growth at 10 uM after 1 to 11 days by MTT assay; conditions: read-out: Activity
[18] = test system: HCT-116; assay: Cytotoxicity against human HCT116 cells assessed as cell growth at 0.1 uM after 1 to 11 days by MTT assay; conditions: read-out: Activity
[19] = test system: OVCAR-8; assay: Cytotoxicity against human OVCAR8 cells assessed as cell growth at 0.1 uM after 1 to 11 days by MTT assay; conditions: read-out: Activity
[20] = test system: HOP-92; assay: Cytotoxicity against human HOP92 cells assessed as cell growth at 1 uM after 1 to 11 days by MTT assay; conditions: read-out: Activity
[21] = test system: OVCAR-4; assay: Cytotoxicity against human OVCAR4 cells assessed as cell growth at 0.1 uM after 1 to 11 days by MTT assay; conditions: read-out: Activity
[22] = test system: DU-145; assay: Cytotoxicity against human DU145 cells after 1 to 11 days by MTT assay
[23] = test system: SW-620; assay: Cytotoxicity against human SW620 cells assessed as cell growth at 10 uM after 1 to 11 days by MTT assay; conditions: read-out: Activity
[24] = test system: T47D; assay: Cytotoxicity against human T47D cells assessed as cell growth at 10 uM after 1 to 11 days by MTT assay; conditions: read-out: Activity
[25] = test system: M14; assay: Cytotoxicity against human M14 cells assessed as cell growth at 1 uM after 1 to 11 days by MTT assay; conditions: read-out: Activity
[26] = test system: Malme-3M; assay: Cytotoxicity against human MALME-3M cells after 1 to 11 days by MTT assay
[27] = test system: RXF 393; assay: Cytotoxicity against human […] cells assessed as cell growth at 1 mM after 1 to 11 days by MTT assay; conditions: read-out: Activity
[28] = test system: NCI-H23; assay: Cytotoxicity against human NCI-H23 cells assessed as cell growth at 100 uM after 1 to 11 days by MTT assay; conditions: read-out: Activity
[29] = test system: TK-10; assay: Cytotoxicity against human TK10 cells assessed as cell growth at 0.1 uM after 1 to 11 days by MTT assay; conditions: read-out: Activity
[30] = test system: BT-549; assay: Cytotoxicity against human BT549 cells assessed as cell growth at 1 uM after 1 to 11 days by MTT assay; conditions: read-out: Activity
[31] = test system: UACC-257; assay: Cytotoxicity against human UACC257 cells assessed as cell growth at 1 mM after 1 to 11 days by MTT assay; conditions: read-out: Activity
[32] = test system: SF-539; assay: Cytotoxicity against human SF539 cells after 1 to 11 days by MTT assay
[33] = test system: SK-OV-3; assay: Cytotoxicity against human SKOV3 cells assessed as cell growth at 10 uM after 1 to 11 days by MTT assay; conditions: read-out: Activity
[34] = test system: SW-620; assay: Cytotoxicity against human SW620 cells assessed as cell growth at 1 uM after 1 to 11 days by MTT assay; conditions: read-out: Activity
[35] = test system: SK-MEL-5; assay: Cytotoxicity against human SK-MEL-5 cells assessed as cell growth at 0.1 uM after 1 to 11 days by MTT assay; conditions: read-out: Activity
[36] = Cytotoxicity against human Hs 578T cells assessed as cell growth at 1 uM after 1 to 11 days by MTT assay; conditions: read-out: Activity
[37] = test system: UO-31; assay: Cytotoxicity against human UO31 cells assessed as cell growth at 100 uM after 1 to 11 days by MTT assay; conditions: read-out: Activity
[38] = test system: NCI-H23; assay: Cytotoxicity against human NCI-H23 cells assessed as cell growth at 1 uM after 1 to 11 days by MTT assay; conditions: read-out: Activity
[39] = test system: MCF7; assay: Cytotoxicity against human MCF7 cells assessed as cell growth at 1 uM after 1 to 11 days by MTT assay; conditions: read-out: Activity
[40] = test system: DU-145; assay: Cytotoxicity against human DU145 cells assessed as cell growth at 1 mM after 1 to 11 days by MTT assay; conditions: read-out: Activity
[41] = test system: HCT-15; assay: Cytotoxicity against human HCT15 cells assessed as cell growth at 1 uM after 1 to 11 days by MTT assay; conditions: read-out: Activity
[42] = test system: HCT-15; assay: Cytotoxicity against human HCT15 cells assessed as cell growth at 10 uM after 1 to 11 days by MTT assay; conditions: read-out: Activity
[43] = test system: SF-268; assay: Cytotoxicity against human SF268 cells after 1 to 11 days by MTT assay
[44] = test system: PC-3; assay: Cytotoxicity against human PC3 cells assessed as cell growth at 1 mM after 1 to 11 days by MTT assay; conditions: read-out: Activity
[45] = test system: RPMI-8226; assay: Cytotoxicity against human RPMI8226 cells assessed as cell growth at 1 uM after 1 to 11 days by MTT assay; conditions: read-out: Activity
[46] = read-out: LC50 (the source's name)

O=C1Nc2ncccc2/C1=C1/Nc2ccccc2/C1=N\O
growth at 100 µM [1]: 49%
growth at 0.1 µM [2]: 102%
growth at 1 µM [3]: 87%
growth at 0.1 µM [4]: 102%
growth at 1 µM [5]: 95%
GI50 [6]: 1.35 µM
TGI [6]: > 100 µM
CC50 [6, 46]: > 100 µM
growth at 100 µM [7]: 8%
growth at 10 µM [8]: 97%
growth at 10 µM [9]: 91%
growth at 100 µM [10]: 18%
growth at 1 µM [11]: 85%
growth at 1 µM [12]: 85%
growth at 100 µM [13]: 27%
growth at 10 µM [14]: 87%
growth at 0.1 µM [15]: 98%
growth at 1 µM [16]: 89%
growth at 10 µM [17]: 94%
growth at 0.1 µM [18]: 109%
growth at 0.1 µM [19]: 79%
growth at 1 µM [20]: 81%
growth at 0.1 µM [21]: 94%
GI50 [22]: 5.69 µM
TGI [22]: > 100 µM
CC50 [22, 46]: > 100 µM
growth at 10 µM [23]: 98%
growth at 10 µM [24]: 65%
growth at 1 µM [25]: 95%
GI50 [26]: 3.36 µM
TGI [26]: 172 µM
CC50 [26, 46]: > 100 µM
growth at 1000 µM [27]: 7%
growth at 100 µM [28]: 55%
growth at 0.1 µM [29]: 101%
growth at 1 µM [30]: 70%
growth at 1000 µM [31]: 60%
GI50 [32]: > 100 µM
TGI [32]: > 100 µM
CC50 [32, 46]: > 100 µM
growth at 10 µM [33]: 69%
growth at 1 µM [34]: 94%
growth at 0.1 µM [35]: 104%
growth at 1 µM [36]: 98%
growth at 100 µM [37]: 3%
growth at 1 µM [38]: 90%
growth at 1 µM [39]: 91%
growth at 1000 µM [40]: 35%
growth at 1 µM [41]: 96%
growth at 10 µM [42]: 80%
GI50 [43]: > 100 µM
TGI [43]: > 100 µM
CC50 [43, 46]: > 100 µM
growth at 1000 µM [44]: 45%
growth at 1 µM [45]: 80%
